This experiment concerns fatigue. As to conditions: all types of fatigue: unexplained fatigue, chronic fatigue syndrome, fibromyalgia.

With “[CuCl (Nicotinic acid)2 H20]complex [The complex]”, the “Effect in chronic fatigue (muscle pain, physical activity, productivity, depression)” value was “relieved the muscle pain, increased the physical activity and productivity”.

Values taken from US20110136776A1, “Copper(1)Chloride Complex of Nicotinic Acid and Pharmaceutical Compositions Containing the Same” (priority 2008, published 2011).
